Test results from patent publication US4552882A, “7-(1-Pyrrolyl) derivatives of 1-ethyl-1,4-dihydro-4-oxoquinoline-3-carboxylic acids and 1-ethyl-1,4-dihydro-4-oxo-1,8-naphthyridine-3-carboxylic acids and their use as antimicrobial agents” (Provesan, SA, priority 1983, dated 1985).
≈ marks a conversion by molar mass, not a printed value.

Experiments:
Assay in all cases: MIC in vitro
Type in all cases: cell-based
[1] = system: Staphylococcus aureus ATCC 5488/23; settings: ATCC5488, Dextrose agar, 37° C., 20 hours
Description: (§1) (G. L. Daquet and Y. A. Chabbect, Techniques en bacteriologie (Bacteriological techniques), vol. 3, Flammarion Medecine Sciences, Paris, 1972 and W. B. Hugo and A. D. Rusell, Pharmaceutical Microbiology, Blackwell Scientific Publications, London, (1977)). Antibiotic medium no. 1 (seed agar) (Oxoid CM 327) Tryptone-soya broth (Oxoid CM 129) Ringer's physiological solution 1/4 (oxoid BR 52) Dextrose agar (BBL-11165) 0.1 N NaOH "Staphylococcus aureus" ATCC 5488/23 Each of the microorganisms is seeded by streaking in tubes of Antibiotic medium No. 1 (seed agar), which are then incubated at 37° C. for 20 hours. Using a culture loop, the cultures are then seeded in tryptone-soyabroth and incubated at 37° C. for 20 hours. The culture obtained is diluted to 1/4 with Ringer's physiological solution, so as to obtain a standardized suspension of 10^7 -10^9 cfu/ml for each organism. Starting from a solution of 1,000 μg/ml in 0.1 N NaOH, each product is diluted in Dextrose agar (previously melted and maintained at 50° C.), with successive dilutions so as to obtain the following concentrations: 64--32--16--8--4--2--1--0.5--0.25--0.125 μg of derivative/ml medium. For each product, the solution of each concentration is subsequently distributed into Petri dishes 10 cm in diameter, with 10 ml of medium per dish and the same number of dishes as microorganisms to be tested. As soon as the medium has cooled, the dishes are seeded with the inoculations using 0.4 ml of inoculation per dish. They are spread with a Driglasky loop and the supernatant is removed. The seeded dishes are incubated at 37° C. for 20 hours.

[2] = system: Micrococus flavus ATCC 10240; settings: Micrococcus flavus, ATCC10240, Dextrose agar, 37° C., 20 hours
Experimental: as §1, with “"Micrococcus flavus"” for “"Staphylococcus aureus"”, “10240” for “5488/23”

[3] = system: Escherichia coli ATCC 10536; settings: ATCC10536, Dextrose agar, 37° C., 20 hours
Experimental: as §1, with “"Escherichia coli"” for “"Staphylococcus aureus"”, “10536” for “5488/23”

SMILES	MIC [1]	MIC [2]	MIC [3]
CCn1cc(C(=O)O)c(=O)c2cc(F)c(-n3cccc3)nc21 [Example 4, 1-ethyl-1,4-dihydro-4-oxo-6-fluoro-7-(1-pyrrolyl)-1,8-naphthyridine-3-carboxylic acid]	0.5 µg/mL (≈ 1.66 µM)	1 µg/mL (≈ 3.32 µM)	0.12 µg/mL (≈ 0.398 µM)
CCn1cc(C(=O)O)c(=O)c2ccc(-n3cccc3)cc21 [Example 1, 7-(1-pyrrolyl)-1-ethyl-1,4-dihydro-4-oxo-3-quinolinecarboxylic acid]	1 µg/mL (≈ 3.54 µM)	16 µg/mL (≈ 56.7 µM)	4 µg/mL (≈ 14.2 µM)
CCn1cc(C(=O)O)c(=O)c2cc(F)c(-n3cccc3)cc21 [Example 2, 6-fluoro-7-(1-pyrrolyl)-1-ethyl-1,4-dihydro-4-oxo-3-quinolinecarboxylic acid]	0.25 µg/mL (≈ 0.833 µM)	8 µg/mL (≈ 26.6 µM)	1 µg/mL (≈ 3.33 µM)
CCn1cc(C(=O)O)c(=O)c2ccc(-n3cccc3)nc21 [Example 3, 1-ethyl-1,4-dihydro-4-oxo-7-(1-pyrrolyl)-1,8-naphthyridine-3-carboxylic acid]	8 µg/mL (≈ 28.2 µM)	4 µg/mL (≈ 14.1 µM)	8 µg/mL (≈ 28.2 µM)
CCn1cc(C(=O)O)c(=O)c2cnc(N3CCNCC3)nc21 [Pipemidic acid, reference compound]	64 µg/mL (≈ 211 µM)	> 64 µg/mL	2 µg/mL (≈ 6.59 µM)
